Species: Rattus norvegicus
Assay: DrugMatrix - Regimen: Daily Repeat
Assay type: toxicity, organism-based, Sprague-Dawley
Parameters: regimen Daily Repeat, gender Male, age 6-8 weeks
Settings: in vivo, po, route oral GAVAGE, vehicle 100 % WATER; for ABSOLUTE BASOPHIL / ABSOLUTE EOSINOPHIL / ABSOLUTE LYMPHOCYTE / ABSOLUTE MONOCYTE / ABSOLUTE SEGMENTED NEUTROPHIL / BASOPHIL / EOSINOPHIL / ERYTHROCYTE COUNT / HEMATOCRIT / HEMOGLOBIN / LEUKOCYTE COUNT / LYMPHOCYTE / MEAN CORPUSCULAR HEMOGLOBIN / MEAN CORPUSCULAR HEMOGLOBIN CONCENTRATION / MEAN CORPUSCULAR VOLUME / MONOCYTE / NEUTROPHIL / NUCLEATED RED BLOOD CELLS / PLATELET COUNT: tissue Blood; for ALANINE AMINOTRANSFERASE / ALBUMIN / ALKALINE PHOSPHATASE / ASPARTATE AMINOTRANSFERASE / BLOOD UREA NITROGEN / CARBON DIOXIDE / CHLORIDE / CHOLESTEROL / CREATINE PHOSPHOKINASE / CREATININE / GLUCOSE / LACTATE DEHYDROGENASE / LIPASE / PHOSPHORUS / POTASSIUM / SODIUM / TOTAL BILIRUBIN / TOTAL PROTEIN / URIC ACID: tissue Plasma
[1] = 0 mg/kg, 72 h, dose level Control, time 3 day
[2] = 0 mg/kg, 120 h, dose level Control, time 5 day
[3] = 30 mg/kg, 72 h, dose level Low, time 3 day

CC(C)NCC(O)c1ccc(NS(C)(=O)=O)cc1 (centres undefined) [SOTALOL]
ABSOLUTE BASOPHIL [1]: 0 CELLS/uL | ABSOLUTE EOSINOPHIL [1]: 102 CELLS/uL | ABSOLUTE LYMPHOCYTE [1]: 12758 CELLS/uL | ABSOLUTE MONOCYTE [1]: 197.17 CELLS/uL | ABSOLUTE SEGMENTED NEUTROPHIL [1]: 1259.5 CELLS/uL | BASOPHIL [1]: 0% | EOSINOPHIL [1]: 0.83% | ERYTHROCYTE COUNT [1]: 5.3 x10E6/uL | HEMATOCRIT [1]: 33.47% | HEMOGLOBIN [1]: 13.12 G/DL | LEUKOCYTE COUNT [1]: 14.32 x10E3/uL | LYMPHOCYTE [1]: 89.33% | MEAN CORPUSCULAR HEMOGLOBIN [1]: 24.8 pg | MEAN CORPUSCULAR HEMOGLOBIN CONCENTRATION [1]: 39.18 G/DL | MEAN CORPUSCULAR VOLUME [1]: 63.25 fL | MONOCYTE [1]: 1.33% | NEUTROPHIL [1]: 8.5% | NUCLEATED RED BLOOD CELLS [1]: 0 /100WBC | PLATELET COUNT [1]: 1313.17 x10E3/uL | ALANINE AMINOTRANSFERASE [1]: 52.67 u/L | ALBUMIN [1]: 4.05 G/DL | ALKALINE PHOSPHATASE [1]: 372 u/L | ASPARTATE AMINOTRANSFERASE [1]: 82.83 u/L | BLOOD UREA NITROGEN [1]: 15 mg/dL | CARBON DIOXIDE [1]: 25.67 mmol/L | CHLORIDE [1]: 102.17 MEQ/L | CHOLESTEROL [1]: 68.83 mg/dL | CREATINE PHOSPHOKINASE [1]: 285 u/L | CREATININE [1]: 0.18 mg/dL | GLUCOSE [1]: 149.17 mg/dL | LACTATE DEHYDROGENASE [1]: 263.83 u/L | LIPASE [1]: 10.17 u/L | PHOSPHORUS [1]: 12.58 mg/dL | POTASSIUM [1]: 6.58 MEQ/L | SODIUM [1]: 144.22 MEQ/L | TOTAL BILIRUBIN [1]: 0.22 mg/dL | TOTAL PROTEIN [1]: 5.83 G/DL | URIC ACID [1]: 1.58 mg/dL | ABSOLUTE BASOPHIL [2]: 0 CELLS/uL | ABSOLUTE EOSINOPHIL [2]: 24 CELLS/uL | ABSOLUTE LYMPHOCYTE [2]: 11134.17 CELLS/uL | ABSOLUTE MONOCYTE [2]: 56.33 CELLS/uL | ABSOLUTE SEGMENTED NEUTROPHIL [2]: 1235.5 CELLS/uL | BASOPHIL [2]: 0% | EOSINOPHIL [2]: 0.17% | ERYTHROCYTE COUNT [2]: 5.68 x10E6/uL | HEMATOCRIT [2]: 35.72% | HEMOGLOBIN [2]: 13.93 G/DL | LEUKOCYTE COUNT [2]: 12.45 x10E3/uL | LYMPHOCYTE [2]: 89.5% | MEAN CORPUSCULAR HEMOGLOBIN [2]: 24.63 pg | MEAN CORPUSCULAR HEMOGLOBIN CONCENTRATION [2]: 39.13 G/DL | MEAN CORPUSCULAR VOLUME [2]: 62.97 fL | MONOCYTE [2]: 0.5% | NEUTROPHIL [2]: 9.83% | NUCLEATED RED BLOOD CELLS [2]: 0 /100WBC | PLATELET COUNT [2]: 1204 x10E3/uL | ALANINE AMINOTRANSFERASE [2]: 59.5 u/L | ALBUMIN [2]: 4.38 G/DL | ALKALINE PHOSPHATASE [2]: 415.67 u/L | ASPARTATE AMINOTRANSFERASE [2]: 91.33 u/L | BLOOD UREA NITROGEN [2]: 17 mg/dL | CARBON DIOXIDE [2]: 26.33 mmol/L | CHLORIDE [2]: 104.17 MEQ/L | CHOLESTEROL [2]: 77 mg/dL | CREATINE PHOSPHOKINASE [2]: 249.67 u/L | CREATININE [2]: 0.21 mg/dL | GLUCOSE [2]: 148.33 mg/dL | LACTATE DEHYDROGENASE [2]: 168.5 u/L | LIPASE [2]: 10.17 u/L | PHOSPHORUS [2]: 12.92 mg/dL | POTASSIUM [2]: 7.09 MEQ/L | SODIUM [2]: 148.37 MEQ/L | TOTAL BILIRUBIN [2]: 0.23 mg/dL | TOTAL PROTEIN [2]: 6.3 G/DL | URIC ACID [2]: 1.77 mg/dL | ABSOLUTE BASOPHIL [3]: 0 CELLS/uL | ABSOLUTE EOSINOPHIL [3]: 90.67 CELLS/uL | ABSOLUTE LYMPHOCYTE [3]: 14675.33 CELLS/uL | ABSOLUTE MONOCYTE [3]: 254 CELLS/uL | ABSOLUTE SEGMENTED NEUTROPHIL [3]: 1113.33 CELLS/uL | BASOPHIL [3]: 0% | EOSINOPHIL [3]: 0.67% | ERYTHROCYTE COUNT [3]: 5.44 x10E6/uL | HEMATOCRIT [3]: 34.57% | HEMOGLOBIN [3]: 13.43 G/DL | LEUKOCYTE COUNT [3]: 16.13 x10E3/uL | LYMPHOCYTE [3]: 91% | MEAN CORPUSCULAR HEMOGLOBIN [3]: 24.7 pg | MEAN CORPUSCULAR HEMOGLOBIN CONCENTRATION [3]: 38.93 G/DL | MEAN CORPUSCULAR VOLUME [3]: 63.47 fL | MONOCYTE [3]: 1.67% | NEUTROPHIL [3]: 6.67% | NUCLEATED RED BLOOD CELLS [3]: 0.67 /100WBC | PLATELET COUNT [3]: 1241 x10E3/uL | ALANINE AMINOTRANSFERASE [3]: 52.67 u/L | ALBUMIN [3]: 4.13 G/DL | ALKALINE PHOSPHATASE [3]: 380.33 u/L | ASPARTATE AMINOTRANSFERASE [3]: 95.67 u/L | BLOOD UREA NITROGEN [3]: 15 mg/dL | CARBON DIOXIDE [3]: 25.67 mmol/L | CHLORIDE [3]: 102 MEQ/L | CHOLESTEROL [3]: 74 mg/dL | CREATINE PHOSPHOKINASE [3]: 490.33 u/L | CREATININE [3]: 0.16 mg/dL | GLUCOSE [3]: 152.33 mg/dL | LACTATE DEHYDROGENASE [3]: 497 u/L | LIPASE [3]: 10.33 u/L | PHOSPHORUS [3]: 13.97 mg/dL | POTASSIUM [3]: 6.87 MEQ/L | SODIUM [3]: 144.53 MEQ/L | TOTAL BILIRUBIN [3]: 0.23 mg/dL | TOTAL PROTEIN [3]: 5.8 G/DL | URIC ACID [3]: 2.13 mg/dL
